The values that follow come from PubChem BioAssay AID328 (DTP/NCI, 2004).

Several values for one entry are separate records, joined by “and”; a condition that tells them apart may be missing. Identical values can stand only once. Toxic doses and inconclusive results are not listed.

The assay has as its system BDF1 mice, P388 leukemia ip, median survival T/C. Description: NCI In Vivo Anticancer Drug Screen. Data for tumor model P388 Leukemia (intraperitoneal) in B6D2F1 (BDF1) mice. The following applies: endpoint: median survival time, higher = longer survival. In short, it runs like this: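 Antitumour effect was judged in vivo: survival in drug-treated mice, normalised to that of vehicle-dosed controls, gives the reported T/C.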

Setting [1] is: dose: 100.0 mg/kg/injection, schedule: Q04DX003 (ip), vehicle: saline with Tween-80.
Where [2] appears, read: dose: 200.0 mg/kg/injection, schedule: Q04DX003 (ip), vehicle: saline with Tween-80.
Where [3] appears, read: dose: 400.0 mg/kg/injection, schedule: Q04DX003 (ip), vehicle: saline with Tween-80.
Setting [4] is: dose: 100.0 mg/kg/injection, schedule: Q01DX009 (ip), vehicle: saline with Tween-80.
The mark [5] stands for this setting: dose: 200.0 mg/kg/injection, schedule: Q01DX009 (ip), vehicle: saline with Tween-80.
[6] abbreviates: dose: 400.0 mg/kg/injection, schedule: Q01DX009 (ip), vehicle: saline with Tween-80.
[7] abbreviates: dose: 100.0 mg/kg/injection, schedule: Q01DX001 (ip), vehicle: saline with Tween-80.
[8] abbreviates: dose: 200.0 mg/kg/injection, schedule: Q01DX001 (ip), vehicle: saline with Tween-80.
[9] abbreviates: dose: 50.0 mg/kg/injection, schedule: Q01DX009 (ip), vehicle: saline with Tween-80.
[10] abbreviates: dose: 50.0 mg/kg/injection, schedule: Q04DX003 (ip), vehicle: saline with Tween-80.
The mark [11] stands for this setting: dose: 50.0 mg/kg/injection, schedule: Q04DX003 (ip), vehicle: saline.

Consider `O=C(Nc1ccccc1C(F)(F)F)Oc1ccc(Cl)cc1Cl`, for which the T/C by setting is: under setting [1], 122 % of control; under setting [2], 109 % of control; under setting [3], 118 % of control.

For `CC(C)(C)C1CCC(C#N)(NNc2ccccc2)CC1` (stereo not drawn), the T/C (dose: 50.0 mg/kg/injection, schedule: Q01DX005 (ip), vehicle: saline with Tween-80) was 90 % of control; the T/C (dose: 100.0 mg/kg/injection, schedule: Q01DX005 (ip), vehicle: saline with Tween-80) was 106 % of control; the T/C (dose: 200.0 mg/kg/injection, schedule: Q01DX005 (ip), vehicle: saline with Tween-80) was 89 % of control.

For `CN(C)c1ccc(C(N)=O)cn1`, the T/C runs as follows: (dose: 0.51 mg/kg/injection, schedule: Q01DX009 (ip), vehicle: saline) 95 % of control; (dose: 1.03 mg/kg/injection, schedule: Q01DX009 (ip), vehicle: saline) 115 % of control; (dose: 2.0 mg/kg/injection, schedule: Q01DX009 (ip), vehicle: saline) 90 % of control; (dose: 2.06 mg/kg/injection, schedule: Q01DX009 (ip), vehicle: saline) 100 % of control; (dose: 3.0 mg/kg/injection, schedule: Q04DX003 (ip), vehicle: saline) 100 % of control; (dose: 3.13 mg/kg/injection, schedule: Q01DX009 (ip), vehicle: saline) 100 % of control. Moreover, the T/C (dose: 4.12 mg/kg/injection, schedule: Q01DX009 (ip), vehicle: saline) was 112 % of control; the T/C (dose: 4.7 mg/kg/injection, schedule: Q01DX009 (ip), vehicle: saline) was 86 % of control; the T/C (dose: 6.0 mg/kg/injection, schedule: Q04DX003 (ip), vehicle: saline) is 100 % of control; the T/C (dose: 12.0 mg/kg/injection, schedule: Q04DX003 (ip), vehicle: saline) was 109 % of control; the T/C (dose: 17.0 mg/kg/injection, schedule: Q04DX003 (ip), vehicle: saline) was 118 % of control; the T/C (dose: 40.0 mg/kg/injection, schedule: Q04DX003 (ip), vehicle: saline) is 95 % of control.

Regarding `Cc1cc(=O)[nH]c(N/N=C/c2ccccc2O)n1`, the T/C by setting is: (dose: 200.0 mg/kg/injection, schedule: Q01DX010 (ip), vehicle: saline) 90 % of control; (dose: 300.0 mg/kg/injection, schedule: Q01DX010 (ip), vehicle: saline) 95 % of control; (dose: 400.0 mg/kg/injection, schedule: Q01DX010 (ip), vehicle: saline) 95 % of control; (dose: 500.0 mg/kg/injection, schedule: Q01DX010 (ip), vehicle: saline) 95 % of control.

As to `O=C(Nc1ccc([N+](=O)[O-])cc1Cl)N(CCO)C1CCCCC1`, the T/C runs as follows: under setting [4], 105 % of control; under setting [5], 100 % of control; under setting [6], 90 % of control.

Regarding `ClC1=C(Cl)[C@@]2(Cl)[C@H]3[C@H]4C[C@H]([C@@H]5O[C@H]45)[C@H]3[C@@]1(Cl)C2(Cl)Cl`, the T/C was 91 % of control (dose: 3.12 mg/kg/injection, schedule: Q01DX009 (ip), vehicle: Klucel (hydroxypropylcellulose) (HPC)) and 87 % of control (dose: 6.25 mg/kg/injection, schedule: Q01DX009 (ip), vehicle: Klucel (hydroxypropylcellulose) (HPC)).

`O=C(Cl)c1cc2ccccc2o1`: the T/C is, setting by setting: under setting [7], 91 % of control; under setting [8], 108 % of control; (dose: 400.0 mg/kg/injection, schedule: Q01DX001 (ip), vehicle: saline with Tween-80) 91 % of control.

As to `CCOc1nc(=O)n(CC(=O)c2ccc(Cl)s2)cc1F`, the T/C is, setting by setting: under setting [9], 114 % of control; under setting [4], 103 % of control; under setting [1], 110 % of control; under setting [5], 99 % of control; under setting [2], 111 % of control; under setting [6], 87 % of control. Moreover, under setting [3], the T/C was 104 % of control.

Take `CCOC(=O)C(CNc1ccccc1)C(=O)OCC`: the T/C is, setting by setting: (dose: 25.0 mg/kg/injection, schedule: Q01DX009 (ip), vehicle: saline with Tween-80) 95 % of control; under setting [9], 95 % of control; under setting [4], 95 % of control and 100 % of control; under setting [5], 100 % of control; under setting [6], 108 % of control and 109 % of control.

For `Cc1ccc(C)c(NC(=O)c2cccc(Cl)c2)c1`, the T/C runs as follows: under setting [1], 104 % of control; under setting [2], 100 % of control; under setting [3], 104 % of control.

On to `NOCc1cccc(Cl)c1`, for which the T/C was 91 % of control under setting [10] and 91 % of control under setting [1].

Take `CC1(C)N=C(N)N=C(N)N1c1ccc(CCCCc2ccc(S(=O)(=O)F)cc2)c(Cl)c1`: the T/C by setting is: (dose: 0.75 mg/kg/injection, schedule: Q01DX009 (ip), vehicle: saline) 160 % of control; (dose: 1.0 mg/kg/injection, schedule: Q01DX009 (ip), vehicle: saline) 150 % of control; (dose: 1.5 mg/kg/injection, schedule: Q01DX009 (ip), vehicle: saline) 151 % of control; (dose: 1.78 mg/kg/injection, schedule: Q01DX009 (ip), vehicle: saline) 168 % of control; (dose: 2.25 mg/kg/injection, schedule: Q01DX009 (ip), vehicle: saline) 174 % of control; (dose: 2.66 mg/kg/injection, schedule: Q01DX009 (ip), vehicle: saline) 174 % of control. The T/C (dose: 4.0 mg/kg/injection, schedule: Q01DX009 (ip), vehicle: saline) was 157 % of control; the T/C (dose: 4.4 mg/kg/injection, schedule: Q01DX009 (ip), vehicle: saline) was 174 % of control; the T/C (dose: 6.0 mg/kg/injection, schedule: Q01DX009 (ip), vehicle: saline) was 158 % of control; the T/C (dose: 6.6 mg/kg/injection, schedule: Q01DX009 (ip), vehicle: saline) is 173 % of control; the T/C (dose: 10.0 mg/kg/injection, schedule: Q01DX009 (ip), vehicle: saline) is 201 % of control; the T/C (dose: 12.5 mg/kg/injection, schedule: Q04DX003 (ip), vehicle: saline) was 118 % of control. Further, the T/C reads like this: (dose: 15.0 mg/kg/injection, schedule: Q01DX009 (ip), vehicle: saline) 204 % of control; (dose: 18.7 mg/kg/injection, schedule: Q01DX009 (ip), vehicle: saline) 195 % of control; (dose: 37.5 mg/kg/injection, schedule: Q01DX009 (ip), vehicle: saline) 245 % of control; under setting [11], 154 % of control; (dose: 75.0 mg/kg/injection, schedule: Q04DX003 (ip), vehicle: saline) 150 % of control.

Regarding `COc1cc2c(cc1OCc1ccccc1)C(C#N)N(C(=O)c1ccccc1)C=C2` (stereo not drawn), the T/C (dose: 25.0 mg/kg/injection, schedule: Q01DX009 (ip), vehicle: saline) is 109 % of control; the T/C (dose: 25.0 mg/kg/injection, schedule: Q04DX003 (ip), vehicle: saline) was 97 % of control; the T/C (dose: 50.0 mg/kg/injection, schedule: Q01DX009 (ip), vehicle: saline) was 100 % of control; the T/C under setting [11] is 95 % of control; the T/C (dose: 100.0 mg/kg/injection, schedule: Q01DX009 (ip), vehicle: saline) is 97 % of control; the T/C (dose: 100.0 mg/kg/injection, schedule: Q04DX003 (ip), vehicle: saline) was 97 % of control. Further, the T/C runs as follows: (dose: 200.0 mg/kg/injection, schedule: Q01DX009 (ip), vehicle: saline) 98 % of control; (dose: 200.0 mg/kg/injection, schedule: Q04DX003 (ip), vehicle: saline) 88 % of control; (dose: 400.0 mg/kg/injection, schedule: Q01DX009 (ip), vehicle: saline) 100 % of control; (dose: 400.0 mg/kg/injection, schedule: Q04DX003 (ip), vehicle: saline) 94 % of control.

On to `CCOC(=O)C(=O)Cc1cnc2ccccc2n1`, for which the T/C reads like this: (dose: 100.0 mg/kg/injection, schedule: Q04DX003 (ip), vehicle: Klucel (hydroxypropylcellulose) (HPC)) 86 % of control; (dose: 200.0 mg/kg/injection, schedule: Q04DX003 (ip), vehicle: Klucel (hydroxypropylcellulose) (HPC)) 86 % of control; (dose: 400.0 mg/kg/injection, schedule: Q04DX003 (ip), vehicle: Klucel (hydroxypropylcellulose) (HPC)) 90 % of control.

As to `COc1ccc2c(c1)C1CN(Cc3ccccc31)C2` (stereo not drawn), the T/C is 96 % of control (dose: 50.0 mg/kg/injection, schedule: Q01DX001 (ip), vehicle: saline with Tween-80); 99 % of control under setting [7]; 89 % of control under setting [8].

For `C=CCC1(CCC)C(=O)NC(=O)NC1=O`, the T/C by setting is: (dose: 25.0 mg/kg/injection, schedule: Q04DX003 (ip), vehicle: saline with Tween-80) 91 % of control; under setting [10], 91 % of control; under setting [1], 95 % of control.
